Laboratory results taken from US20060270670A1, “Methods of synthesizing 6-alkylaminoquinoline derivatives” (priority 2005, published 2006).
Where two headings read alike, the source gives them in different places.

What was measured:
HER-4 = molecular target: T1, HER-4 (Homo sapiens, UniProt Q15303); test: ErbB substrate phosphorylation assay (33PanQinase assay), HER-4; type: biochemical; conditions: peptide substrate phosphorylation, [γ33P]-ATP
T1 construct: purchased ProQinase, Freiburg, Germany
Procedure: (§1) Here, the ability of the compound to inhibit phosphorylation of a substrate peptide [poly(Glu-Tyr) or poly(Ala-Glu-Lys-Tyr)] was determined.

BT474 = test: Cell proliferation assay (SRB), BT474; type: cell-based; conditions: Homo sapiens, BT-474, 144 h, read-out: IC50 cell proliferation BT474
A431 = test: Cell proliferation assay (SRB), A431; type: cell-based; conditions: Homo sapiens, A-431, 48 h, A431, 2 days, mean and SE (n)
EGFR = molecular target: T2, EGFR (Homo sapiens, UniProt P00533); test: ErbB substrate phosphorylation assay (33PanQinase assay), EGFR; type: biochemical; conditions: peptide substrate phosphorylation, [γ33P]-ATP
T2 construct: purchased ProQinase, Freiburg, Germany
Procedure: as §1

BT474 xenografts = test: Effect on tumor xenografts, BT474; type: in vivo, Mice; conditions: for effect on BT474 xenografts: 10-40 mg/kg/day; for maximum tumor inhibition: day 21
Procedure: In animals bearing BT474 xenografts, treatment of animals with (E)N-{4-[3-chloro-4-(2-pyridinylmethoxy)anilino]-3-cyano-7-ethoxy-6-quinolinyl}-4-(methylamino)-2-butenamide had no effect at 10-40 mg/kg/day, as shown in Table 4.

3T3 = test: Cell proliferation assay (SRB), 3T3; type: cell-based; conditions: Mus musculus, NIH3T3, 48 h, read-out: IC50 cell proliferation 3T3
3T3/neu = test: Cell proliferation assay (SRB), 3T3/neu; type: cell-based, mouse; conditions: for IC50: Mus musculus, 48 h, read-out: IC50 cell proliferation 3T3/neu
3T3/neu xenografts = test: Effect on tumor xenografts, 3T3/neu; type: in vivo, Mice
[1] = tested on: SW620 colon carcinoma cells; test: Cell proliferation assay (SRB), SW620; type: cell-based; conditions: Homo sapiens, SW-620, 48 h, read-out: IC50 cell proliferation SW620
HER-2 = molecular target: T3, HER-2 (Homo sapiens, UniProt P04626); test: ErbB substrate phosphorylation assay (33PanQinase assay), HER-2; type: biochemical; conditions: peptide substrate phosphorylation, [γ33P]-ATP
T3 construct: purchased ProQinase, Freiburg, Germany
Procedure: as §1

[2] = molecular target: T4, cytoplasmic kinase domain of HER-2 (Homo sapiens, UniProt P04626); test: HER-2 autophosphorylation assay; type: biochemical; conditions: purified recombinant C-terminal fragment of HER-2 with ATP; phosphotyrosine antibodies; mean and SE (n)
T4 construct: Purified recombinant C-terminal fragment of HER-2 was incubated with ATP

SK-Br-3 = test: Cell proliferation assay (SRB), SK-Br-3; type: cell-based; conditions: Homo sapiens, read-out: IC50 cell proliferation SK-Br-3

T2 sequence (P00533 25-1210): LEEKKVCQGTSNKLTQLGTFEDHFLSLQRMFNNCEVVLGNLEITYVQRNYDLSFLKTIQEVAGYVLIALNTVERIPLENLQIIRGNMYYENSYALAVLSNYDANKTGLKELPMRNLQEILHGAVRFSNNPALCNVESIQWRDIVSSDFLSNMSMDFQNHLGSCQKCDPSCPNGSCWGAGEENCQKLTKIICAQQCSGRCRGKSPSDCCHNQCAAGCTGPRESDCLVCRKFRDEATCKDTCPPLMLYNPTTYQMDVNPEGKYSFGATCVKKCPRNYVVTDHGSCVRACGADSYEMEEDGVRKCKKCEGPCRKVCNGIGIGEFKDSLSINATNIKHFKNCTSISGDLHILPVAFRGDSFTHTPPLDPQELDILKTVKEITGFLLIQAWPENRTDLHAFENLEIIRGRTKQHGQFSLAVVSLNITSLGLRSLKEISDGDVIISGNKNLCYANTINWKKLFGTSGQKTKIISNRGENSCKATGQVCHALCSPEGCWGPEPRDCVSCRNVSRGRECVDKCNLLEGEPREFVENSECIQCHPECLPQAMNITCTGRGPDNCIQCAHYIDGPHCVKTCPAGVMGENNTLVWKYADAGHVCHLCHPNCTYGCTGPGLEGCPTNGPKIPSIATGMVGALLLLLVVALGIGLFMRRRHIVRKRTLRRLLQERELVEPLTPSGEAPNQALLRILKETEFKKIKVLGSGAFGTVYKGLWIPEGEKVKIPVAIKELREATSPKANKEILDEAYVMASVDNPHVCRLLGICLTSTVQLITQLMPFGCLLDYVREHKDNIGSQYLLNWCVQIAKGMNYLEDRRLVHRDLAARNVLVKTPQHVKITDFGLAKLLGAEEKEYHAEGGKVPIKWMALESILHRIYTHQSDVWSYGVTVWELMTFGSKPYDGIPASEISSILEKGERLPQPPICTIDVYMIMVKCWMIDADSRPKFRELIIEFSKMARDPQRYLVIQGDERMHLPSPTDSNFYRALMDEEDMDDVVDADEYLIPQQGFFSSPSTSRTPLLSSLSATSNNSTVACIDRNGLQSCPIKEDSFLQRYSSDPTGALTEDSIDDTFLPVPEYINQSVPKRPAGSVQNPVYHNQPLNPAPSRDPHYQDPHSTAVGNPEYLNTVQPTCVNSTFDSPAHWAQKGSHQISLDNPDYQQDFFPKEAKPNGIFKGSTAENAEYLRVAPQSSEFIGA
T4 sequence (P04626 676-1255 limits assumed): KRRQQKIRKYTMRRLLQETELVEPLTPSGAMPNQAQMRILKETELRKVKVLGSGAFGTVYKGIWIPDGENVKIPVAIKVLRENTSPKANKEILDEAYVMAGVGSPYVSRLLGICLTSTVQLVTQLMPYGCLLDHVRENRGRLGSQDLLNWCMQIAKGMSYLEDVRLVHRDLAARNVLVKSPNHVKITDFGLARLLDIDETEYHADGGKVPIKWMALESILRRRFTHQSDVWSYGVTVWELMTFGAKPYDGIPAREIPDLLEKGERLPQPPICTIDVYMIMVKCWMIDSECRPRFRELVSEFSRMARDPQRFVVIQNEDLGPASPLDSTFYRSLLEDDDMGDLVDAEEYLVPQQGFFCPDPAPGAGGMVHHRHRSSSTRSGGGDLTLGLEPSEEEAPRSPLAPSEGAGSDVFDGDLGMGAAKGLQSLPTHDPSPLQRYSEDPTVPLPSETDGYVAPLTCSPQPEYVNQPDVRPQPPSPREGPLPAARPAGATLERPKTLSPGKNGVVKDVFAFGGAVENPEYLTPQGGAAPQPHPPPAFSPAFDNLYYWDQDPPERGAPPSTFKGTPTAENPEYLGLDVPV
T3 sequence (P04626 23-1255): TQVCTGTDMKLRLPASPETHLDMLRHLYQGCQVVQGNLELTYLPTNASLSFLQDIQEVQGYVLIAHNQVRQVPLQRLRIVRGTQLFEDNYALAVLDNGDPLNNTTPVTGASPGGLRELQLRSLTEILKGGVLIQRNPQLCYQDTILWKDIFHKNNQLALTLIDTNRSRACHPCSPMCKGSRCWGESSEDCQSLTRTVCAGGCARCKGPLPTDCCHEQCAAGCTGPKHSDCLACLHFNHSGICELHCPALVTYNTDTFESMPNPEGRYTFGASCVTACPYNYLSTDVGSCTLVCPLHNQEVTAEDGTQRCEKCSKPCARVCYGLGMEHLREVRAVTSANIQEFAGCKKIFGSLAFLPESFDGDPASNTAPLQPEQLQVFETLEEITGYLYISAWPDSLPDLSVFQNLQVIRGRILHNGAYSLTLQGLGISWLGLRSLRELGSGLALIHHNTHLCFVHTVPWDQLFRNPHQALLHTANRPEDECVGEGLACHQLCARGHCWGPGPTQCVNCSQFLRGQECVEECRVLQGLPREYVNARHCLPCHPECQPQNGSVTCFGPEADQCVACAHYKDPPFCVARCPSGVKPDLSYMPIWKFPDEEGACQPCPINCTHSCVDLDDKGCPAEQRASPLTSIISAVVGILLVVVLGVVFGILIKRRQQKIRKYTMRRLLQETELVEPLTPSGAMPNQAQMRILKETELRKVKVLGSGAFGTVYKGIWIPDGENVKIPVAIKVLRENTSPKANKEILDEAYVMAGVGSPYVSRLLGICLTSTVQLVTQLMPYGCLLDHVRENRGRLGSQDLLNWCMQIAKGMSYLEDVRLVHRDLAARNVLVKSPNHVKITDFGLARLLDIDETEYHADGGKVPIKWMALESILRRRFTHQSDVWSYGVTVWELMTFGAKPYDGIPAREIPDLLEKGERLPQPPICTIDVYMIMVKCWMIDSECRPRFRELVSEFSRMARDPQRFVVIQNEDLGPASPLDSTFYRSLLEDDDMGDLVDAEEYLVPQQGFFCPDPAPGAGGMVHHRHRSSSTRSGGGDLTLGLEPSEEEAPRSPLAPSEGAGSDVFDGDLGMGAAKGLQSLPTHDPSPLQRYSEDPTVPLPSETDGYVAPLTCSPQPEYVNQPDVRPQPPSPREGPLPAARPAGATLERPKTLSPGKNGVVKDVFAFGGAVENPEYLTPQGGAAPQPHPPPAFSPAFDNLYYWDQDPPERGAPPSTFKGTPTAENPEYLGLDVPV
T1 sequence (Q15303 26-1308): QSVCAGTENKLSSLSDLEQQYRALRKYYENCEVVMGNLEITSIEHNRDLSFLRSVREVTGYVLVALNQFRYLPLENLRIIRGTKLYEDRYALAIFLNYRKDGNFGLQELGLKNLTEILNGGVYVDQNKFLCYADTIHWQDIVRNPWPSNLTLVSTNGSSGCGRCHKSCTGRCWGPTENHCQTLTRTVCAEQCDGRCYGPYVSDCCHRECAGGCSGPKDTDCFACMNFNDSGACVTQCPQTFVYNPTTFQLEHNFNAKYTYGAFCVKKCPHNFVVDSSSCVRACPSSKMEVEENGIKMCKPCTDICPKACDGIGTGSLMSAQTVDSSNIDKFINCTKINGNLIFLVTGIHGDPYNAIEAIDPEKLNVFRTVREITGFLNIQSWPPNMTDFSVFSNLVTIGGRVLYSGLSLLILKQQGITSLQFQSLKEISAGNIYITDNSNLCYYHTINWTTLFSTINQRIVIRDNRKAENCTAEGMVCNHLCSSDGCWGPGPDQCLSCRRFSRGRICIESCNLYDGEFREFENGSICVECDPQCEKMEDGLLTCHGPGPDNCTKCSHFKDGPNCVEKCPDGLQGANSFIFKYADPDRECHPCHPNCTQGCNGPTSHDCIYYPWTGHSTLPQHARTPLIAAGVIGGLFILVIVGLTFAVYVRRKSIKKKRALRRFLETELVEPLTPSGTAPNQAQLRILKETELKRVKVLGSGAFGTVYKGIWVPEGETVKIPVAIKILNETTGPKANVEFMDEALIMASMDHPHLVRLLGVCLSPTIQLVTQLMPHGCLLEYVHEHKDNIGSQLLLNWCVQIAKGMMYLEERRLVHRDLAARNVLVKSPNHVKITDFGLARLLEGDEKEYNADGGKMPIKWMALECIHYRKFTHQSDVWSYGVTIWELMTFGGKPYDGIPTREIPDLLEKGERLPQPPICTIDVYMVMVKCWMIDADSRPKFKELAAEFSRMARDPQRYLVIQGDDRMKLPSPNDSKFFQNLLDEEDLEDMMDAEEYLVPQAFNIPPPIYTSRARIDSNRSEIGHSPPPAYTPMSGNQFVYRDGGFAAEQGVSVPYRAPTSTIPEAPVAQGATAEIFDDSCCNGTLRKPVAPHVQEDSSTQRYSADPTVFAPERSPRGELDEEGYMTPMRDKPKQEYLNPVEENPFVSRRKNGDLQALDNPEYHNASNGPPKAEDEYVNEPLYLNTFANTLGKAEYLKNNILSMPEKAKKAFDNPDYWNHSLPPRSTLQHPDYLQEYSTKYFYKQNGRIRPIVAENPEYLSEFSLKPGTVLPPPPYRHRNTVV

**Q.** For `CCOc1cc2ncc(C#N)c(Nc3ccc(OCc4ccccn4)c(Cl)c3)c2cc1NC(=O)/C=C/CNC` [Example 6, (E)N-{4-[3-Chloro-4-(2-pyridinylmethoxy)anilino]-3-cyano-7-ethoxy-6-quinolinyl}-4-(methylamino)-2-butenamide], which IC50 (HER-4) is on record?
**A.** 13 nM

**Q.** And the IC50 (BT474; BT474, 6 days, SRB, mean and SE (n))?
**A.** 3 nM

**Q.** And the IC50 (A431)?
**A.** 67 nM

**Q.** And the IC50 (EGFR)?
**A.** 7 nM

**Q.** And the “effect on BT474 xenografts” value (BT474 xenografts)?
**A.** no effect

**Q.** And the IC50 (3T3; 3T3 untransfected cells, 2 days, SRB, mean and SE (n))?
**A.** 5460 nM

**Q.** What about the “fold less potent than the dimethylamino compound” value (3T3/neu; 3T3/neu cells) of the same compound?
**A.** 8 fold

**Q.** What about the IC50 (3T3/neu; 3T3/neu, 2 days, SRB, mean and SE (n)) of the same compound?
**A.** 40 nM

**Q.** What about the “effect on tumor growth” value (3T3/neu xenografts; first test, daily oral, between 5 and 40 mg/kg/day) of the same compound?
**A.** no effect on tumor growth

**Q.** And the “effect on tumor growth” value (3T3/neu xenografts; second independent test, 100 mg/kg/day)?
**A.** no effect on tumor growth

**Q.** And the IC50 ([1]; SW620, 2 days, SRB, mean and SE (n))?
**A.** 1600 nM

**Q.** And the IC50 (HER-2)?
**A.** 21 nM

**Q.** What about the IC50 [2] of the same compound?
**A.** 3.4 nM

**Q.** And the IC50 (SK-Br-3; 48 h, SK-Br-3, 2 days, SRB, mean and SE (n))?
**A.** 34 nM

**Q.** What does the source list for `CCOc1cc2ncc(C#N)c(Nc3ccc(OCc4ccccn4)c(Cl)c3)c2cc1NC(=O)/C=C/CN(C)C` [Dimethylamino, (E)N-{4-[3-Chloro-4-(2-pyridinylmethoxy)anilino]-3-cyano-7-ethoxy-6-quinolinyl}-4-(dimethylamino)-2-butenamide, reference compound]?
**A.** IC50 (BT474): 2 ± 0.2 nM; maximum tumor inhibition (BT474 xenografts; 10 mg/kg/day): 64%; maximum tumor inhibition (BT474 xenografts; 40 mg/kg/day): 97%; effect on BT474 xenografts (BT474 xenografts): good antitumor activity; IC50 (3T3): 2190 ± 700 nM; IC50 (3T3/neu): 5 ± 0.2 nM; tumor growth inhibition (3T3/neu xenografts; first test, 40 mg/kg/day, day 18 (data not shown)): 74%; tumor growth inhibition (3T3/neu xenografts; second independent test, between 40 and 80 mg/kg/day, day 14): 93-100%; IC50 [1]: 1220 ± 246 nM; IC50 (SK-Br-3; SK-BR-3, 48 h): 36 ± 20 nM

**Q.** For `CCOc1cc2ncc(C#N)c(Nc3ccc(F)c(Cl)c3)c2cc1NC(=O)/C=C/CNCC(=O)OC(C)(C)C` [Example 2, (E)N-{4-[3-chloro-4-fluoroanilino]-3-cyano-7-ethoxy-6-quinolinyl}-4-[N-(t-butyloxycarbonyl)methylamino]-2-butenamide], which melting point is on record?
**A.** 106.5 to 108 °C
